Laboratory results reported in PubChem BioAssay (NCI).
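Grown in 96-well plates, cells were treated for 48 hours with each compound at five concentrations. Insufficient inhibition: endpoint recorded as highest concentration tested. Definition used: TGI = concentration required for complete inhibition of growth.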

Legend:
Assay in all cases: NCI anticancer screen, dose series, 48 h
A498 renal = test system: A498 renal
DLD-1 colon = test system: DLD-1 colon
DMS 273 small cell lung = test system: DMS 273 small cell lung
OVCAR-5 ovarian = test system: OVCAR-5 ovarian
NCI-H23 lung = test system: NCI-H23 lung
XF 498 CNS = test system: XF 498 CNS
SK-MEL-28 melanoma = test system: SK-MEL-28 melanoma
EKVX NSCLC = test system: EKVX NSCLC
ACHN renal = test system: ACHN renal
HL-60(TB) leukemia = test system: HL-60(TB) leukemia
HCC-2998 colon = test system: HCC-2998 colon
LOX IMVI melanoma = test system: LOX IMVI melanoma
RPMI-8226 leukemia = test system: RPMI-8226 leukemia
SN12C renal = test system: SN12C renal
RXF-631 renal = test system: RXF-631 renal
SNB-78 CNS = test system: SNB-78 CNS
CCRF-CEM leukemia = test system: CCRF-CEM leukemia
SNB-75 CNS = test system: SNB-75 CNS
OVCAR-8 ovarian = test system: OVCAR-8 ovarian
HCT-15 colon = test system: HCT-15 colon
NCI-H226 lung = test system: NCI-H226 lung
OVCAR-4 ovarian = test system: OVCAR-4 ovarian
HOP-18 NSCLC = test system: HOP-18 NSCLC
M19-MEL melanoma = test system: M19-MEL melanoma
SK-MEL-2 melanoma = test system: SK-MEL-2 melanoma
LXFL 529 NSCLC = test system: LXFL 529 NSCLC
COLO 205 colon = test system: COLO 205 colon
OVCAR-3 ovarian = test system: OVCAR-3 ovarian
NCI-H460 lung = test system: NCI-H460 lung
SF-268 CNS = test system: SF-268 CNS
SNB-19 CNS = test system: SNB-19 CNS
KM20L2 colon = test system: KM20L2 colon
UACC-257 melanoma = test system: UACC-257 melanoma
CAKI-1 renal = test system: CAKI-1 renal
HCT-116 colon = test system: HCT-116 colon
SF-295 CNS = test system: SF-295 CNS
786-0 renal = test system: 786-0 renal
MALME-3M melanoma = test system: MALME-3M melanoma
IGROV1 ovarian = test system: IGROV1 ovarian
HOP-62 NSCLC = test system: HOP-62 NSCLC
SR leukemia = test system: SR leukemia
DMS 114 small cell lung = test system: DMS 114 small cell lung
NCI-H522 lung = test system: NCI-H522 lung
SK-OV-3 ovarian = test system: SK-OV-3 ovarian
MOLT-4 leukemia = test system: MOLT-4 leukemia
U251 CNS = test system: U251 CNS
HOP-92 NSCLC = test system: HOP-92 NSCLC
HT29 colon = test system: HT29 colon
UO-31 renal = test system: UO-31 renal
SW-620 colon = test system: SW-620 colon
A549 NSCLC = test system: A549 NSCLC
TK-10 renal = test system: TK-10 renal
UACC-62 melanoma = test system: UACC-62 melanoma
K-562 leukemia = test system: K-562 leukemia
SF-539 CNS = test system: SF-539 CNS
KM12 colon = test system: KM12 colon
M14 melanoma = test system: M14 melanoma
SK-MEL-5 melanoma = test system: SK-MEL-5 melanoma
RXF 393 renal = test system: RXF 393 renal

CN(C)CCCN1N=Nc2cccc3cccc1c23
TGI (A498 renal): > 100 µM | TGI (DLD-1 colon): > 100 µM | TGI (DMS 273 small cell lung): 39.8 µM | TGI (OVCAR-5 ovarian): > 100 µM | TGI (NCI-H23 lung): > 100 µM | TGI (XF 498 CNS): > 100 µM | TGI (SK-MEL-28 melanoma): > 100 µM | TGI (EKVX NSCLC): > 100 µM | TGI (ACHN renal): > 100 µM | TGI (HL-60(TB) leukemia): > 63.1 µM | TGI (HCC-2998 colon): > 100 µM | TGI (LOX IMVI melanoma): > 100 µM | TGI (RPMI-8226 leukemia): > 69.3 µM | TGI (SN12C renal): > 100 µM | TGI (RXF-631 renal): > 100 µM | TGI (SNB-78 CNS): > 100 µM | TGI (CCRF-CEM leukemia): > 63.4 µM | TGI (SNB-75 CNS): > 100 µM | TGI (OVCAR-8 ovarian): > 100 µM | TGI (HCT-15 colon): > 57.5 µM | TGI (NCI-H226 lung): > 100 µM | TGI (OVCAR-4 ovarian): 58 µM | TGI (HOP-18 NSCLC): > 100 µM | TGI (M19-MEL melanoma): > 95.3 µM | TGI (SK-MEL-2 melanoma): > 100 µM | TGI (LXFL 529 NSCLC): > 87 µM | TGI (COLO 205 colon): > 70.2 µM | TGI (OVCAR-3 ovarian): > 100 µM | TGI (NCI-H460 lung): > 89.1 µM | TGI (SF-268 CNS): > 100 µM | TGI (SNB-19 CNS): > 100 µM | TGI (KM20L2 colon): > 100 µM | TGI (UACC-257 melanoma): > 100 µM | TGI (CAKI-1 renal): > 100 µM | TGI (HCT-116 colon): > 64.6 µM | TGI (SF-295 CNS): > 100 µM | TGI (786-0 renal): 38.2 µM | TGI (MALME-3M melanoma): > 100 µM | TGI (IGROV1 ovarian): > 100 µM | TGI (HOP-62 NSCLC): > 100 µM | TGI (SR leukemia): 51.4 µM | TGI (DMS 114 small cell lung): > 57.9 µM | TGI (NCI-H522 lung): > 100 µM | TGI (SK-OV-3 ovarian): > 100 µM | TGI (MOLT-4 leukemia): > 77.3 µM | TGI (U251 CNS): > 100 µM | TGI (HOP-92 NSCLC): > 100 µM | TGI (HT29 colon): > 100 µM | TGI (UO-31 renal): > 100 µM | TGI (SW-620 colon): > 54.4 µM | TGI (A549 NSCLC): > 100 µM | TGI (TK-10 renal): > 100 µM | TGI (UACC-62 melanoma): > 100 µM | TGI (K-562 leukemia): > 65.1 µM | TGI (SF-539 CNS): > 100 µM | TGI (KM12 colon): > 100 µM | TGI (M14 melanoma): > 63.6 µM | TGI (SK-MEL-5 melanoma): > 100 µM

OCn1nc2c(C3OCCO3)cc3ccccc3n2c1=S
TGI (A498 renal): > 100 µM | TGI (DLD-1 colon): > 100 µM | TGI (DMS 273 small cell lung): > 100 µM | TGI (OVCAR-5 ovarian): > 100 µM | TGI (NCI-H23 lung): > 100 µM | TGI (XF 498 CNS): > 100 µM | TGI (SK-MEL-28 melanoma): > 100 µM | TGI (EKVX NSCLC): > 100 µM | TGI (ACHN renal): > 100 µM | TGI (HL-60(TB) leukemia): > 100 µM | TGI (LOX IMVI melanoma): > 100 µM | TGI (RPMI-8226 leukemia): > 100 µM | TGI (SN12C renal): > 100 µM | TGI (RXF-631 renal): > 100 µM | TGI (SNB-78 CNS): > 100 µM | TGI (CCRF-CEM leukemia): > 100 µM | TGI (SNB-75 CNS): > 100 µM | TGI (OVCAR-8 ovarian): > 100 µM | TGI (HCT-15 colon): > 100 µM | TGI (NCI-H226 lung): > 100 µM | TGI (OVCAR-4 ovarian): > 100 µM | TGI (HOP-18 NSCLC): > 100 µM | TGI (M19-MEL melanoma): > 100 µM | TGI (SK-MEL-2 melanoma): > 100 µM | TGI (LXFL 529 NSCLC): > 100 µM | TGI (COLO 205 colon): > 100 µM | TGI (OVCAR-3 ovarian): > 100 µM | TGI (NCI-H460 lung): > 100 µM | TGI (SF-268 CNS): > 100 µM | TGI (SNB-19 CNS): > 100 µM | TGI (KM20L2 colon): > 100 µM | TGI (UACC-257 melanoma): > 100 µM | TGI (CAKI-1 renal): > 100 µM | TGI (HCT-116 colon): > 100 µM | TGI (SF-295 CNS): > 100 µM | TGI (786-0 renal): > 100 µM | TGI (MALME-3M melanoma): > 100 µM | TGI (IGROV1 ovarian): > 100 µM | TGI (HOP-62 NSCLC): > 100 µM | TGI (SR leukemia): > 100 µM | TGI (DMS 114 small cell lung): > 100 µM | TGI (NCI-H522 lung): > 100 µM | TGI (SK-OV-3 ovarian): > 100 µM | TGI (MOLT-4 leukemia): > 100 µM | TGI (U251 CNS): > 100 µM | TGI (HOP-92 NSCLC): > 100 µM | TGI (HT29 colon): > 100 µM | TGI (UO-31 renal): > 100 µM | TGI (SW-620 colon): > 100 µM | TGI (A549 NSCLC): > 100 µM | TGI (TK-10 renal): > 100 µM | TGI (UACC-62 melanoma): > 100 µM | TGI (K-562 leukemia): > 100 µM | TGI (SF-539 CNS): > 100 µM | TGI (KM12 colon): > 100 µM | TGI (M14 melanoma): > 100 µM | TGI (SK-MEL-5 melanoma): > 100 µM | TGI (RXF 393 renal): > 100 µM
